Where a name gives a salt, the structure may show the parent alone. Marks after values point to notes of the source that are not given here.
What was measured:
[1] = tested on: HOXA9/DNA binding (HBS, HOXA9-binding site); set-up: species or system human; conditions: ELISA-derived assay and EMSA, Figure 1; SAR discussion
[2] = tested on: HMG-box protein; experiment: HMG-box protein DNA binding; conditions: specificity control
[3] = tested on: HOXA9 binding site 5′-ATTTA; experiment: DNase I footprinting
[4] = tested on: HOXA9-mediated transactivation; experiment: HOXA9-driven luciferase assay; format: cell-based, human; conditions: K562 transfected with pCMV-AD-HOXA9 and wild-type HBS reporter, 20μM, 48H
[5] = tested on: K562 cells; experiment: Colony-forming assay K562; format: cell-based, human; conditions: 2.5μM, 10 days, 1000 cells/well, mean +/− s.e.m
[6] = tested on: Itgam, Oasl2, Akap13, Arfgef1 expression in MigA9 cells; experiment: qRT-PCR of differentiation-associated genes; format: cell-based, murine; conditions: MigA9, 5 or 10μM, 48 hours
[7] = tested on: MigA9 cells; conditions: 2.5μM, 10 days; for MigA9 Number of colonies, Total: 1000 cells/well
[8] = tested on: MigA9 and/or HT-29 cells; experiment: Cellular distribution by fluorescence microscopy; format: cell-based; conditions: intrinsic fluorescence; MigA9 20 μM 2h and/or HT-29 5μM 16H
[9] = tested on: HBS DNA sequence; experiment: Circular dichroism on HBS oligonucleotide; format: binding; conditions: 300-400 nm, increasing drug/DNA ratio
[10] = tested on: MigA9 cells; experiment: Cell cycle and sub-G1 analysis; format: cell-based, murine
[11] = tested on: HOXA9/HBS complex; format: binding, human; conditions: from EMSA quantification

N=C(N)c1ccc(-c2ccc(-c3ccc(C(=N)N)cc3)s2)cc1 [DB351]
HOXA9/DNA binding inhibition (in words) [1]: inactive

N=C(N)c1ccc(-c2ccc(-c3nc4ccc(C(=N)N)cc4[nH]3)s2)cc1 [DB818]
inhibition of DNA binding of the HMG-box protein [2]: failed to inhibit
recognition of 5′-ATTTA site in DNase I footprinting [3]: protected site was clearly evidenced
inhibition of HOXA9-mediated transactivation (luciferase) [4]: able to inhibit
K562 Number of colonies, Total [5]: 448 +/− 17
over-expression of Itgam, Oasl2, Akap13 and Arfgef1 [6]: over-expression
MigA9 Number of colonies, Total [7]: 101
MigA9 colonies, BFU-E (%) ([7]; share of total colonies): 3 (3%)
MigA9 colonies, Total (%) ([7]; share of total colonies): 100%

N=C(N)c1ccc(-c2ccc(-c3nc4cc(C(=N)N)ccc4o3)o2)cc1 [DB828]
entry into cells and localization in the nucleus [8]: localized to the nucleus
recognition of 5′-ATTTA site in DNase I footprinting [3]: failed to recognize
inhibition of HOXA9-mediated transactivation (luciferase) [4]: failed
induced CD signal [9]: only weak CD changes
over-expression of Itgam, Oasl2, Akap13 and Arfgef1 [6]: failed to achieve the similar results
MigA9 Number of colonies, BFU-E [7]: 2
MigA9 Number of colonies, CFU-GM [7]: 90
MigA9 Number of colonies, CFU-M [7]: 16
MigA9 Number of colonies, Total [7]: 170
MigA9 colonies, Total (%) ([7]; share of total colonies): 100%

N=C(Nc1ccc(-c2ccc(-c3ccc(NC(=N)c4ccccn4)cc3)[nH]2)cc1)c1ccccn1 [DB883]
recognition of 5′-ATTTA site in DNase I footprinting [3]: failed to recognize

N=C(N)c1ccc(-c2cccc(-c3nc4ccc(C(=N)N)cc4[nH]3)c2)cc1 [DB911]
entry into cells and localization in the nucleus [8]: could not be detected

N=C(N)c1cccc(-c2ccc(-c3nc4cc(C(=N)N)ccc4[nH]3)cc2)c1 [DB1055]
inhibition of DNA binding of the HMG-box protein [2]: failed to inhibit
recognition of 5′-ATTTA site in DNase I footprinting [3]: protected site was clearly evidenced
inhibition of HOXA9-mediated transactivation (luciferase) [4]: able to inhibit
% SubG1 48H ([10]; MigA9, 15 μM): 1.27 +/− 0.20%
K562 Number of colonies, Total [5]: 467 +/− 12
MigA9 Number of colonies, BFU-E [7]: 2
MigA9 Number of colonies, CFU-G [7]: 58
MigA9 Number of colonies, CFU-M [7]: 55
MigA9 Number of colonies, Total [7]: 115
MigA9 colonies, CFU-GM (%) ([7]; share of total colonies): 0 (0%)
MigA9 colonies, Total (%) ([7]; share of total colonies): 100%

N=C(N)c1ccc(-c2ccc(-c3ccc4ccc(C(=N)N)cc4c3)cc2)cc1 [DB1177]
recognition of 5′-ATTTA site in DNase I footprinting [3]: much weaker binding activity
sub-group for HOXA9/DNA binding inhibition [11]: Medium

N=C(N)c1ccc(-c2ccc(-c3cc4ccc(C(=N)N)cc4[nH]3)o2)cc1 [DB1878]
recognition of 5′-ATTTA site in DNase I footprinting [3]: much weaker binding activity
% SubG1 48H ([10]; MigA9, 10 μM): 15.94 +/− 1.80 ^$ %
% SubG1 48H ([10]; MigA9, 15 μM): 27.88 +/− 16.14 * %

N=C(N)c1ccc(-c2ccc(-c3cc4ccc(C(=N)N)cc4[nH]3)s2)cc1 [DB1879, 2-(5-(4-Carbamimidoylphenyl)thiophen-2-yl)-1H-indole-6-carboximidamide diydrochloride]
recognition of 5′-ATTTA site in DNase I footprinting [3]: protected site was clearly evidenced

N=C(N)c1ccc(-c2ccc(-c3cc4ccc(C(=N)N)cc4[nH]3)s2)nc1 [DB2529, 2-(5-(5-Carbamimidoylpyridin-2-yl)thiophen-2-yl)-1H-indole-6-carboximidamide trihydrochloride]
recognition of 5′-ATTTA site in DNase I footprinting [3]: protected site was clearly evidenced

— publication PMC6561105 (Journal of medicinal chemistry, 2019)
